Measurements reported in patent publication US6043228A, “O^6 -substituted guanine derivatives, a process for their preparation and their use in treating tumor cells” (Cancer Research Campaign Technology Limited, priority 1993, dated 2000).
pIC50: −log10 of the molar value. Entries after “also recorded” stand apart in the source; their conditions may differ. Read-outs that look alike come from different tables or passages of the source.

Legend:
recombinant human ATase = target: T1, recombinant human ATase (Homo sapiens, UniProt P16455); experiment: In vitro ATase inactivation assay (incubation with inactivators and ATase assay); assay type: biochemical; settings: for ATase inactivation in vitro, result in words: recombinant human ATase, standard conditions
T1 construct: made in house
T1 sequence (P16455 1-207): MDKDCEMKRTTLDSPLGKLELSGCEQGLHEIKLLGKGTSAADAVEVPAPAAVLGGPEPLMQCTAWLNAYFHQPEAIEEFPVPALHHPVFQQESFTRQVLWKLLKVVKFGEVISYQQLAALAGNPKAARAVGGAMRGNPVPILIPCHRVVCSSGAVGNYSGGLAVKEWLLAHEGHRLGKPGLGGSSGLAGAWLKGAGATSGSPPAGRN
Method: The cDNA cloning and overexpression of the human ATase has been reported previously^23. Purification of the recombinant proteins was achieved either by affinity chromatography through a DNA-cellulose column as described by Wilkinson et al.,^25, 26 or by DEAE-cellulose ion-exchange chromatography. For the latter, the ATase protein was partially purified by ammonium sulphate precipitation (30-60%) and dialysed against 10 mM Tris-HCl pH 7.5, 1 mM DTT, 2 mM EDTA, 10% glycerol, before loading on a DEAE-cellulose column. The ATase was then eluted with a 0-0.1 M NaCl gradient.
Compounds to be tested were dissolved in DMSO to a final concentration of 10 mM and diluted just before use in buffer I containing 1 mg/ml bovine serum albumin (IBSA). Recombinant ATase was diluted in IBSA and titrated in order that the reaction be conducted under ATase, and not substrate, limiting conditions. […] Following acid hydrolysis of the DNA as previously described^21 the [^3 H]-methylated protein was recovered and quantitated by liquid scintillation counting. Samples were typically assayed in duplicate and experiments repeated several times. I50 is the concentration of inactivator required to produce a 50% reduction in ATase activity.

[1] = target: T2, ATase in human melanoma xenografts (Homo sapiens, UniProt P16455); experiment: ATase activity in human melanoma (A375) xenografts grown in nude mice after inactivator; assay type: in vivo; settings: single i.p. dose 30 or 60 mg/kg (FIG. 17)
T2 construct: A375M cells are human melanoma cells from which the xenografts described below were established; endogenous in cells; host or cells: A375M xenograft grown in nude mice
T2 sequence (P16455 1-207): T1 sequence (P16455 1-207)
Method: Cells (10^6) in 100 μl of PBS were injected subcutaneously into the right-hand flank of 8-10 week old nu/nu athymic mice. These cells were allowed to develop into a tumour for 3-4 weeks for passaging into experimental animals. Tumour blocks measuring 2 mm×2 mm×2 mm were implanted subcutaneously on the right hand flank. These animals were ready for use in inactivator experiments in 7-10 days.
ATase substrate DNA was prepared by incubation of purified calf thymes DNA with N-[^3 H]-methyl-N-nitrosuourea (18.7 Ci/mmole, Amersham International). Cell or tissue extracts (see 4.4) were incubated with [^3 H]-methylated-DNA substrate (100 μl containing 6.7 μg of DNA and 100 fmol of O^6 -[^3 H]methylguanine) at 37° C. for 60 mins. Following acid hydrolysis of the DNA as precviously described^21the [^3 H]-methylated protein was recovered and quantitated by liquid scintillation counting.
Mice were treated with the inactivator as a suspension in corn oil by intraperitoneal injection (i.p.) or by oral gavage (p.o.) 60 mins prior to temozolomide (100 mg/kg in 20% DMSO in phosphate-buffered saline) which was always given by intraperitoneal injection: this schedule was repeated on days 1 to 5 inclusive. Controls received vehicle alone, inactivator alone or temozolomide alone.

Raji cells [2] = experiment: Sensitization of Raji cells to temozolomide (XTT assay); assay type: cell-based, human; settings: 0.1-5.0 μM inactivator (FIGS. 3, 4)
Method: (§1) Following a 2 hour incubation at 37° C., medium containing either increasing doses of BCNU, temozolomide or equivalent vehicle was added and the cells allowed to grow for 6 days. At this time XTT solution was added and the cells incubated for a further 4 hours at 37° C. The resulting red/orange formazan reaction product was quantified by measuring absorption at 450 nm on a microtitre platereader.

[3] = system: human bone marrow granulocyte macrophage colony forming cells; experiment: Sensitization of bone marrow cells to temozolomide (GM-CFC assay); assay type: cell-based
Description: For the granulocyte/macrophage colony-forming cell (GM-CFC) assay primary human bone marrow samples were obtained from patients undergoing cardiothoracic surgery. […] The colonies represented precursor cells of the granulocyte/macrophage lineage (huGM-CFC). Survival was expressed as a % of the number of colonies at zero dose temozolomide.

[4] = Toxicity of inactivators in combination with BCNU in DBA2 mice; assay type: in vivo, mouse; settings: mouse, in vivo, ip, 60 mg/kg, single i.p. dose, read-out: % SURVIVAL AFTER 14 DAYS
Description: All agents were given as a single i.p. dose

Raji cells [5] = experiment: Sensitization of Raji cells to BCNU (XTT assay); assay type: cell-based, human; settings: 1.0 μM inactivator (FIG. 2)
Method: as §1

nude mice = experiment: Xenograft study: survival of nude mice given inactivator plus BCNU; settings: in combination with BCNU (FIGS. 9-13)
Description: BALB-C derived athymic male mice (nu/nu athymic) weighing between 25-35 g were obtained from the in-house breeding colony of the Paterson Institute for Cancer Research, Christie Hospital NHS Trust, Wilmslow Road, Manchester M20 9BX, England (ASU mice). The animals were housed in a sterile environment until required for experiments. In one experiment mice were obtained from Harlan-Olac, Harlan UK Limited, Shaw's Farm, Blackthorn, Bicester, Oxon. OX6 OPT, England (OLAC mice).

[6] = Table 9, pure recombinant ATase in vitro, read-out: I50 (μm)

SMILES | ATase inactivation in vitro, result in words (recombinant human ATase) | pIC50 (recombinant human ATase; [6]) | also measured
CC(Oc1nc(N)nc2[nH]cnc12)c1ccccc1 (racemic) [B.4214, DL-0^6 -(α-methylbenzyl)guanine, reference compound] | reduce greatly the inactivating activity; also recorded: did not inactivate ATase up to the highest concentration used |  | 
CC(Oc1nc(N)nc2[nH]cnc12)c1cccs1 (racemic) [B.4217, DL-0^6 -(α-methylthenyl)guanine] | reduce greatly the inactivating activity; also recorded: did not inactivate ATase up to the highest concentration used |  | 
Nc1nc(OCc2ccsc2)c2nc[nH]c2n1 [B.4206, 0^6-(3-thienylmethyl)guanine] | somewhat more effective than BeG; also recorded: I50 values lower than that of BeG |  | 
Nc1nc(OCc2ccc3c(c2)OCO3)c2nc[nH]c2n1 [B.4212, 0^6 -piperonylguanine] | considerably better; also recorded: I50 values lower than that of BeG |  | 
Nc1nc(OCc2cc3ccccc3s2)c2nc[nH]c2n1 [B.4226, 0^6-(2-benzo[b]thienylmethyl)guanine] | I50 values lower than that of BeG |  | 
COc1ccccc1COc1nc(N)nc2[nH]cnc12 [B.4231, O^6-(2-methoxybenzyl)guanine, reference compound] |  |  | pIC50 (recombinant human ATase; Table 4, 1 hour incubation with inactivator at 37° C., read-out: I50): 4.22
Nc1nc(OCc2cc3ccccc3o2)c2nc[nH]c2n1 [B.4266, 0^6-(2-benzofuranylmethyl)guanine] | I50 values lower than that of BeG |  | 
Nc1nc(OCc2ccc(Br)s2)c2nc[nH]c2n1 [B.4269, 0^6-(5-bromothenyl)guanine] | more efficient than the unsubstituted thenyl derivative B.4205; also recorded: I50 values lower than that of BeG |  | 
N#Cc1ccc(COc2nc(N)nc3[nH]cnc23)o1 [B.4273, 0^6-(5-cyanofurfuryl)guanine] | I50 values lower than that of BeG |  | 
Nc1nc(OCc2cncs2)c2nc[nH]c2n1 [B.4275, 0^6-(5-thiazolylmethyl)guanine] | I50 values lower than that of BeG |  | 
Nc1nc(OCc2ccc(Cl)s2)c2nc[nH]c2n1 [B.4281, O^6-(5-chlorothenyl)guanine] |  | 8.40 | 
N#Cc1ccc(COc2nc(N)nc3[nH]cnc23)s1 [B.4283, O^6-(5-cyanothenyl)guanine] |  | 8.30 | 
C[S+]([O-])c1ccc(COc2nc(N)nc3[nH]cnc23)s1 (stereo not drawn) [B.4294, O^6-(5-methylsulphinylthenyl)guanine] |  | 7.52 | 
Nc1nc(OCc2cc(Cl)cs2)c2nc[nH]c2n1 [B.4298, O^6-(4-chlorothenyl)guanine] |  | 8.10 | 
COc1csc(COc2nc(N)nc3[nH]cnc23)c1 [B.4300, O^6-(4-methoxythenyl)guanine] |  | 7.78 | 
Nc1nc(OCc2csc(Br)c2)c2nc[nH]c2n1 [B.4313, O^6-(5-bromo-3-thienylmethyl)guanine] |  | 8.19 | 
N#Cc1csc(COc2nc(N)nc3[nH]cnc23)c1 [B.4317, O^6-(4-cyanothenyl)guanine] | more efficient inactivator in vitro than its 5-cyano analogue B.4283 or the unsubstituted thenyl derivative B.4205 | 8.55 | 
Nc1nc(OCc2cc(Cl)c(Cl)s2)c2nc[nH]c2n1 [B.4318, O^6-(4,5-dichlorothenyl)guanine] |  | 7.82 | 
Nc1nc(OCc2ccnc(Cl)c2)c2nc[nH]c2n1 [B.4321, O^6-(2-chloro-4-picolyl)guanine] |  | 7.40 | 
Nc1nc(OCc2ccc(Br)o2)c2nc[nH]c2n1 [B.4336, O^6-(5-bromofurfuryl)guanine] |  | 7.70 | 
Nc1nc(OCc2ccccc2)c2nc[nH]c2n1 [O^6 -benzylguanine, reference compound] |  |  | inactivation of ATase in human melanoma xenografts, in words [1]: inactivated; dose response of Raji sensitization to temozolomide, in words (Raji cells [2]): clear dose response; sensitization of GM-CFC to cytotoxic effects of temozolomide, in words ([3]; four different patient samples, 10 μM (FIG. 23)): sensitized; sensitization of GM-CFCs to toxic effects of temozolomide, in words ([3]; three human bone marrow samples (FIG. 14)): sensitised; survival at 336 h ([4]; inactivator 60 mg/kg + 10 mg/kg BCNU): 50%; survival at 336 h ([4]; inactivator 60 mg/kg + 15 mg/kg BCNU (footnote *)): 0%; survival at 336 h ([4]; inactivator 60 mg/kg + 20 mg/kg BCNU): 33%; sensitizing Raji cells to growth inhibitory effects of BCNU, in words (Raji cells [5]): equally effective; death of treated animals (nude mice): up to 70%
